# What was measured:
# Polycomb protein EED [1] = target: T1, Polycomb protein EED (Homo sapiens, UniProt O75530); assay: Binding affinity to his-tagged EED (76 to 441 residues) (unknown origin) expressed in Escherichia coli BL21 (DE3) using H3K27me3 as substrate assessed as dissociation constant
# Polycomb protein EED [2] = target: T1, Polycomb protein EED; assay: Binding affinity to his-tagged EED (76 to 441 residues) (unknown origin) expressed in Escherichia coli BL21 (DE3) assessed as dissociation constant by SPR analysis
# T1 sequence (O75530 whole entry, the tested form may be a part): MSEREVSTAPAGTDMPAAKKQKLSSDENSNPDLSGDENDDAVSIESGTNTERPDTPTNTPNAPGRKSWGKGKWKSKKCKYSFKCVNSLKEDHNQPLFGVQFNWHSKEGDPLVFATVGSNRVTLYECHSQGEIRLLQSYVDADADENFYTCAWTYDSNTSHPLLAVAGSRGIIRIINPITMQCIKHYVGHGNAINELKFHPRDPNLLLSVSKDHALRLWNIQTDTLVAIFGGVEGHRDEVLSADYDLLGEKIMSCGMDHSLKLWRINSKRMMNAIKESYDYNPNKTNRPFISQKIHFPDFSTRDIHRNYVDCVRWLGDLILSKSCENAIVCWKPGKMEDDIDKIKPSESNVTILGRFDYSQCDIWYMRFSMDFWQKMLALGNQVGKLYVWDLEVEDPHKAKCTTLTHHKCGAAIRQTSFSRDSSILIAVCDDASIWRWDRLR
Structure (SMILES),Kd (Polycomb protein EED [1]) [µM],Kd (Polycomb protein EED [2]) [µM]
Clc1ccc(C2(C3=Cc4ccccc4C4=NCCN34)CC2)cc1,25,
CC(C)(Cc1ccccc1)C1=Cc2ccccc2C2=NCCN12,21,
Fc1ccccc1C1=Cc2ccccc2C2=NCCN12,,13.5
NC1=NCC(c2cccc(Oc3ccc(Cl)cc3)c2)C1 (centres undefined),,~360
